The source of these data is ChEMBL document CHEMBL4732194, “Indolyl-α-keto-1,3,4-oxadiazoles: Synthesis, anti-cell proliferation activity, and inhibition of tubulin polymerization” (Bioorg Med Chem Lett, 2021).

pIC50: −log10 of the molar value. Active and inactive are the calls of the source. The rule behind the calls is not given here.

For test [1], the system named is U-937. In words: Antiproliferative activity against human U-937 cells assessed as cell survival at 10 uM (reference value: 100 +/ 8.7 %). The test is classed as functional. To be noted: read-out: Activity.
Test [2] is described as follows: Antiproliferative activity against human SMS-SB cells assessed as cell survival at 10 uM (reference value: 100 +/ 6 %). The class given is functional. The note with it: read-out: Activity.
Test [3] concerns BT-474. In words: Antiproliferative activity against human BT-474 cells assessed as cell survival at 10 uM (reference value: 100 +/ 6.3 %). To be noted: read-out: Activity. The test is classed as functional.
Test [4] concerns Jurkat. In words: Antiproliferative activity against human Jurkat cells assessed as cell survival at 10 uM (reference value: 104.3 +/ 10.2 %). The test is classed as functional. To be noted: read-out: Activity.
Test [5] in a line: Inhibition of porcine brain tubulin polymerization assessed as disruption of microtubule assembly measured after 1.5 hrs in presence of GTP by fluorescence based analysis. The test is classed as tissue-based, Sus scrofa.
Test [6] has as its system Jurkat. The test is described as follows: Antiproliferative activity against human Jurkat cells assessed as inhibition of cell proliferation. The test is classed as functional, cell-based.
For test [7], the system named is Jurkat. The test is described as follows: Induction of apoptotic cell death in human Jurkat cells assessed as activation of caspase 3/7 at 3 uM by fluorescence assay relative to control. The class given is functional.
Test [8] concerns BT-474. In words: Antiproliferative activity against human BT-474 cells assessed as inhibition of cell proliferation. The class given is functional, cell-based.
The subject of test [9] is Jurkat. The test is described as follows: Cytotoxicity against human Jurkat cells assessed as cell membrane damage by LDH assay. The test is classed as functional, cell-based.
The target of the next test is Tubulin. The test is described as follows: (§1) Inhibition of tubulin polymerization (unknown origin) assessed as inhibition of microtubule formation. The test is classed as protein-complex assay, Homo sapiens.
A further test deals with Tubulin (Homo sapiens) (UniProt P68371+Q9H4B7+P0DPH7+P68366+Q13509+Q71U36+P04350+Q3ZCM7+P07437+P68363+Q9BQE3+Q6PEY2+Q13885+Q9BVA1+Q9BUF5). The description is as §1. The test is classed as protein-complex assay.
For test [10], the system named is U-937. In words: Antiproliferative activity against human U-937 cells assessed as inhibition of cell proliferation. The class given is functional, cell-based.
Test [11] is described as follows: Antiproliferative activity against human SMS-SB cells assessed as inhibition of cell proliferation. The class given is functional, cell-based.
In another test the test system is MCF7. In words: Antiproliferative activity against estrogen-sensitive human MCF7 cells assessed as cell growth inhibition measured after 4 days by crystal violet staining based assay. The class given is functional. The note with it: MCF7, 96 h.
Test [12] is described as follows: Inhibition of calf brain tubulin polymerization assessed as disruption of microtubule assembly measured after 20 mins in presence of GTP by turbidometric analysis. The class given is tissue-based, Bos taurus.
Test [13] has as its system Jurkat. The test is described as follows: Induction of apoptotic cell death in human Jurkat cells assessed as activation of caspase 3/7 by fluorescence assay relative to control. The class given is functional.

For `O=C(c1ccccc1)c1nnc(-c2c[nH]c3ccccc23)o1`, the viability at 10 µM was determined as 98.7% with U-937 [1], 87.6% in [2], 59.3% in the test with BT-474 [3] and 82.1% in the test on Jurkat [4].

As to `Cc1ccc(C(=O)c2nnc(-c3c[nH]c4ccccc34)o2)cc1`, the viability at 10 µM is 102% in the test on U-937 [1], 66.8% in test [2], 67.9% in the test with BT-474 [3] and 78.9% with Jurkat [4].

Broadly, the pIC50 is the IC50 on a negative log10 scale, so that one unit is a factor of ten. Consider `COc1cc(/C=C/c2nnc(-c3cc(-c4ccc(Cl)cc4)n[nH]3)o2)cc(OC)c1OC`, for which the pIC50 in test [5] is 5.89.

On to `COc1ccc(C(=O)c2nnc(-c3c[nH]c4cc(F)ccc34)o2)cc1`, for which the viability at 10 µM was 108% in the test on U-937 [1], 101% in [2], 72.6% in the test on BT-474 [3] and 86.4% in the test with Jurkat [4].

As to `COc1cc(C(=O)c2nnc(-c3cn(Cc4ccc(Cl)cc4)c4ccccc34)o2)cc(OC)c1OC`, the viability at 10 µM came out at 86% with U-937 [1], 96.2% in [2], 68.5% in the test with BT-474 [3] and 80.6% with Jurkat [4].

Turning to `O=C(c1ccc(F)cc1)c1nnc(-c2c[nH]c3ccccc23)o1`, the viability at 10 µM in the test with U-937 [1] came out at 95.3%; in test [2], 76.8%; with BT-474 [3], 62.3%; in the test on Jurkat [4], 90.9%.

For `COc1ccc(C(=O)c2nnc(-c3c[nH]c4ccccc34)o2)cc1OC`, the viability at 10 µM amounted to 90.3% in the test with U-937 [1], 93.5% in test [2], 70.2% in the test with BT-474 [3] and 92.5% with Jurkat [4].

Regarding `COc1ccc(C(=O)c2nnc(-c3c[nH]c4ccc(OC)cc34)o2)cc1`, the viability at 10 µM in the test with U-937 [1] is 98.7%; in [2], 70.7%; in the test with BT-474 [3] it was 70.3%; in the test on Jurkat [4] it was 99.9%.

For `COc1ccc(C(=O)c2nnc(-c3cc4ccccc4[nH]3)o2)cc1OC`, the viability at 10 µM was 75.2% with U-937 [1], 76.1% in test [2], 67.4% with BT-474 [3] and 67.4% with Jurkat [4].

In the case of `COc1ccc2[nH]cc(-c3nnc(C(=O)c4cc(OC)c(OC)c(OC)c4)o3)c2c1`, the viability at 10 µM in the test on U-937 [1] is 85.5%; in [2], 74.3%; with BT-474 [3] it was 54%; in the test on Jurkat [4], 88.9%.

Regarding `COc1ccc(C(=O)c2nnc(-c3c[nH]c4ccc(Br)cc34)o2)cc1`, the viability at 10 µM in the test with U-937 [1] came to 105%; in test [2] it was 94.8%; in the test with BT-474 [3], 65.8%; with Jurkat [4] it was 88.8%.

As to `COc1ccc(C(=O)c2nnc(-c3cc4ccccc4[nH]3)o2)cc1`, the viability at 10 µM with U-937 [1] came to 84.1%; in test [2], 79.9%; with BT-474 [3] it was 56.1%; with Jurkat [4], 75.1%.

For the compound `COc1cc(C(=O)c2nnc(-c3c[nH]c4ccccc34)o2)cc(OC)c1OC`, the pIC50 with Jurkat [6] was 5.51; in the test with BT-474 [8], 5.39; on Tubulin, 4.97; in the test with U-937 [10] it was 5.15; in test [11], 6.10. For the same compound, the viability at 10 µM in the test with U-937 [1] was determined as 27.5%; in test [2] it was 11.6%; in the test with BT-474 [3], 41.1%; in the test with Jurkat [4], 35.2%. Besides, in the test with Jurkat [7], the “fold change (FC)” value was found to be 9. In addition, in the test with Jurkat [9], the outcome was inactive. The inhibition result at Tubulin (Homo sapiens) was “Dose-dependent effect”.

Take `O=C(Nc1ccncc1)C(=O)c1cn(Cc2ccc(Cl)cc2)c2ccccc12` [INDIBULIN]: the viability at 10 µM with U-937 [1] amounted to 27.1%; in test [2] it was 32.9%; in the test with BT-474 [3] it was 40.9%; with Jurkat [4], 31.6%.

As for `O=C(c1ccccc1)c1nnc(-c2cn(Cc3ccc(Cl)cc3)c3ccccc23)o1`, the viability at 10 µM in the test on U-937 [1] is 85%; in [2], 87.9%; in the test with BT-474 [3], 68.9%; in the test on Jurkat [4], 82%.

For `COc1ccc(-c2[nH]c3cc(OC)ccc3c2C=O)cc1`, the pIC50 was 7.46 with MCF7 and 5.82 in test [12].

`COc1cc(C(=O)c2nnc(-c3c[nH]c4ccc(Br)cc34)o2)cc(OC)c1OC`: the viability at 10 µM was 92.1% with U-937 [1], 70.9% in test [2], 56.8% in the test with BT-474 [3] and 77.4% in the test on Jurkat [4].

Regarding `COc1ccc(C(=O)c2nnc(-c3c[nH]c4ccccc34)o2)cc1`, the viability at 10 µM turned out to be 108% in the test with U-937 [1], 96.2% in test [2], 88.4% in the test with BT-474 [3] and 99.6% in the test with Jurkat [4].

As for `COc1cc(C(=O)c2nnc(-c3cc4ccccc4[nH]3)o2)cc(OC)c1OC`, the viability at 10 µM in the test with U-937 [1] came out at 91.2%; in [2], 35.7%; in the test with BT-474 [3] it was 111%; in the test on Jurkat [4], 44.9%.

In the case of `COc1cccc2c1C(=O)c1c(O)c3c(c(O)c1C2=O)C[C@@](O)(C(=O)CO)C[C@@H]3O[C@H]1C[C@H](N)[C@H](O)[C@H](C)O1` [DOXORUBICIN], the viability at 10 µM turned out to be 22.9% in the test with U-937 [1], 15.1% in test [2], 31.8% in the test on BT-474 [3] and 30.1% in the test on Jurkat [4]. Also, the “fold change (FC)” value in the test on Jurkat [13] is reported as 8.
